Results on ten compounds are retold here after patent US20230357219A1, “PREPARATION OF BIARYL RING-LINKED AROMATIC HETEROCYCLIC DERIVATIVE AS IMMUNOMODULATOR AND USE THEREOF” (SHANGHAI LONGWOOD BIOPHARMACEUTICALS CO., LTD., priority 2020, published 2023).

A value given as a limit tells only on which side of the number the result lay.

Chain of PD-1/PD-L1 (Q9NZQ7 19-238): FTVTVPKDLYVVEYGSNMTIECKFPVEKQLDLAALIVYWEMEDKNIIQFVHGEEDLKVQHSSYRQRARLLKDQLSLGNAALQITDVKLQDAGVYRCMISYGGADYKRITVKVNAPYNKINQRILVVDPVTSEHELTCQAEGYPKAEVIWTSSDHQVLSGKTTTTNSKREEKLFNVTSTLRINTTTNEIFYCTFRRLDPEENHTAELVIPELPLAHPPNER

This experiment addresses PD-1/PD-L1 (Homo sapiens (Human), UniProt Q9NZQ7). Description: PD-1/PD-L1 Homogeneous Time-Resolved Fluorescence (HTRF) Binding Assay. The following applies: ~3 nM of PD1, 10 nM of PD-L1; 25° C., PBS buffer (pH 7.4). As to the method:
Assays were performed in standard black 384-well polystyrene plates and a final volume was 20 µL. The inhibitor was first serially diluted with DMSO and added to the wells of the plate, then other reaction components were added. The final concentration of DMSO in the assay was 1%. Assays were performed at 25° C. in PBS buffer (pH 7.4) containing 0.05% Tween-20 and 0.1% BSA. Recombinant human PD-L1 protein (19-238) with a His-tagged at the C-terminus was purchased from AcroBiosystems (PD1-H5229). Recombinant human PD-1 protein (25-167) with an Fc tag at the C-terminus was also purchased from AcroBiosystems (PD1-H5257). The PD-L1 and PD-1 proteins were diluted in assay buffer and then 0.1 µl of the solution was extracted and added to the wells of the plate. Plates were centrifuged and proteins and inhibitors were preincubated for 40 minutes. After incubation, 0.1 µl of HTRF detection buffer containing europium […] labeled anti-human IgG (PerkinElmer-AD0212), Fc-specific and anti-His SureLight®-Allophycocyanin (APC, PerkinElmer-AD0059H) conjugated antibodies was added. After centrifugation, the plates were incubated at 25° C. for 60 minutes. Data was read in a PHERAstar FS plate reader (665 nm/620 nm ratio). Final concentrations in the assay were ~3 nM of PD1, 10 nM of PD-L1, 1 nM of europium anti-human IgG, and 20 nM of anti-His-allophycocyanin. Activity data were fitted using GraphPad Prism 5.0 software to derive IC50 values for inhibitors. The IC50 values of the compounds exemplified in the examples are expressed in the following manner: IC50: + = ≤100 nM; ++ =100 nM-1000 nM; +++ = >1000 nM. The data of the example compounds obtained by PD-1/PD-L1 homogeneous time-resolved fluorescence (HTRF) binding assay described in Example A were provided in Table 1.
Background: In TR-FRET formats the signal depends on donor and acceptor labels being close together.
As usually defined, the IC50 is the point on the concentration scale where inhibition reaches its midpoint. Low readings indicate greater potency, high ones weaker potency. Compound `COc1nc(O[C@@H]2CCc3c(-c4cccc(Nc5nccc6cc(CN7CC[C@@H](O)C7)cnc56)c4C)cccc32)cnc1CN1CC[C@@H](C(=O)O)C1` [Compound 5] returned a half-maximal inhibitory concentration (IC50) of at most 100 nM.

In turn, `COc1nc(O[C@@H]2CCc3c(-c4cccc(Nc5nccc6cc(CN7CC[C@@H](O)C7)cnc56)c4C)cccc32)ccc1CN1CC[C@@H](C(=O)O)C1` [Compound 3] had a concentration for half-maximal inhibition (IC50) of at most 100 nM. Compound `COc1nc(O[C@@H]2CCc3c(-c4cccc(Nc5nccc6cc(CN7CC[C@H](O)C7)cnc56)c4Cl)cccc32)cnc1CN1CC[C@@H](C(=O)O)C1` [Compound 13] showed a half-inhibitory concentration (IC50) of at most 100 nM. In the case of `COc1nc(O[C@@H]2CCc3c(-c4cccc(Nc5nccc6cc(CN7CC[C@@H](C(=O)O)C7)cnc56)c4Cl)cccc32)ccc1CN1CC[C@@H](O)C1` [Compound 10], the 50% inhibitory concentration (IC50) was at most 100 nM. The result for `COc1nc(O[C@@H]2CCc3c(-c4cccc(Nc5nccc6cc(CN7CC[C@@H](C(=O)O)C7)cnc56)c4C)cccc32)cnc1CN1CC[C@@H](O)C1` [Compound 4] reads at most 100 nM; that for `COc1nc(O[C@@H]2CCc3c(-c4cccc(Nc5nccc6cc(CN7CC[C@@H](C(=O)O)C7)cnc56)c4C)cccc32)ccc1CN1CC[C@@H](O)C1` [Compound 7], at most 100 nM; that for `COc1nc(O[C@@H]2CCc3c(-c4cccc(-c5nc6cc(CN7CC[C@@H](C(=O)O)C7)cc(C#N)c6o5)c4C)cccc32)ccc1CN1CC[C@@H](O)C1` [Compound 6], at most 100 nM. The result for `COc1nc(O[C@@H]2CCc3c(-c4cccc(-c5nc6cc(CN7CC[C@@H](O)C7)cc(C#N)c6o5)c4C)cccc32)cnc1CN1CC[C@@H](C(=O)O)C1` [Compound 9] reads at most 100 nM; that for `COc1nc(O[C@@H]2CCc3c(-c4cccc(-c5nc6cc(CN7CC[C@@H](C(=O)O)C7)cc(C#N)c6o5)c4C)cccc32)cnc1CN1CC[C@@H](O)C1` [Compound 8], at most 100 nM. Next, `COc1nc(O[C@@H]2CCc3c(-c4cccc(Nc5nccc6cc(CN7CC[C@@H](C(=O)O)C7)cnc56)c4Cl)cccc32)cnc1CN1CC[C@@H](O)C1` [Compound 12]: at most 100 nM.
